Article PMC6886798, “Expression of myeloid Src-family kinases is associated with poor prognosis in AML and influences Flt3-ITD kinase inhibitor acquired resistance” (PLoS ONE, 2019)
Read-outs that look alike come from different tables or passages of the source.

What was measured:
Fgr T338M = target: T1, Fgr T338M (Homo sapiens, UniProt P09769, T334M); test: Z'-LYTE in vitro kinase assay; assay type: biochemical
T1 construct: Recombinant near-full-length kinases, consisting of the SH2, SH3 and kinase domains plus the negative regulatory tail; made in house; host or cells: E. coli BL21Star (DE3), co-expressed with Csk and PTP1B
Description: (§3) Assays were performed in quadruplicate in 384-well low volume, non-binding, black polystyrene microplates (Corning) according to the manufacturer’s instructions. Briefly, this assay measures phosphorylation of the Tyr2 peptide substrate which is tagged with coumarin and fluorescein on its N- and C-termini, respectively, to form a FRET pair. After the kinase reaction, a development step involves site-specific proteolytic cleavage of the unphosphorylated but not the phosphorylated peptide. […] Kinase reactions were run in 50 mM HEPES, pH 7.5, 10 mM MgCl2, 1 mM EGTA, and 0.01% BRIJ-35 (buffer supplied by the manufacturer). […] Following incubation for 1 h at ambient temperature, reactions were quenched by addition of the development protease, and coumarin and fluorescein fluorescence were measured 1 h later on a Molecular Devices SpectraMax M5 plate reader. […] For experiments with inhibitors, compounds were preincubated with kinase for 30 min prior to initiation of the reaction by the addition of ATP.

MOLM14 cells (parent) = test: CellTiter-Blue cell viability; assay type: cell-based, human
Description: (§1) Gibco/ThermoFisher). Parental TF-1 cells also require recombinant human GM-CSF (1 ng/mL; ThermoFisher). MOLM13 and MOLM14 cells were obtained from Leibniz Institute Deutsche Sammlung von Mikroorganismen (DSMZ) and grown in RPMI 1640 medium containing 20% FBS and Antibiotic-Antimycotic. […] Cell viability was assessed using the CellTiter-Blue reagent according to the manufacturer’s instructions (Promega). Fluorescence intensity, which correlates directly with viable cell number, was measured using a SpectraMax M5 microplate reader. Each experiment included three technical replicates per condition, and each experiment was repeated at least three times.

MOLM13 cells (parent) = test: CellTiter-Blue cell viability; assay type: cell-based, human
Description: as §1

MV4-11 cells (parent) = test: CellTiter-Blue cell viability; assay type: cell-based, human
Description: as §1

Flt3-D835Y kinase domain = target: T2, Flt3-D835Y kinase domain (Homo sapiens, UniProt P36888, D835Y); test: Z'-LYTE in vitro kinase assay; assay type: biochemical; conditions: Flt3 D835Y mutant
T2 construct: Recombinant purified Flt3 wild-type, Flt3-ITD and Flt3-D835Y kinase domains were purchased from ThermoFisher; purchased ThermoFisher
Description: as §3

HCK = target: T3, HCK (Homo sapiens, UniProt P08631); test: KINOMEscan; assay type: binding; conditions: 1.0 µM
T3 construct: purchased Eurofins/DiscoverX KINOMEscan scanMAX
Description: Kinase retention to the immobilized ligand is then measured using quantitative real-time PCR for each kinase-specific DNA barcode.

[1] = system: MOLM14 R3 (A-419259-resistant population); test: CellTiter-Blue cell viability; assay type: cell-based, human
Description: (§2) Cell viability was assessed using the CellTiter-Blue reagent according to the manufacturer’s instructions (Promega). Fluorescence intensity, which correlates directly with viable cell number, was measured using a SpectraMax M5 microplate reader. Each experiment included three technical replicates per condition, and each experiment was repeated at least three times. […] Viability of each cell population was measured three times per week using the CellTiter-Blue assay.

[2] = system: MV4-11 R2 (A-419259-resistant population); test: CellTiter-Blue cell viability; assay type: cell-based, human
Description: as §2

[3] = system: MV4-11 R3 (A-419259-resistant population); test: CellTiter-Blue cell viability; assay type: cell-based, human
Description: as §2

[4] = system: MOLM13 R3 (A-419259-resistant population); test: CellTiter-Blue cell viability; assay type: cell-based, human
Description: as §2

[5] = system: MOLM14 R2 (A-419259-resistant population); test: CellTiter-Blue cell viability; assay type: cell-based, human
Description: as §2

[6] = system: MOLM14 R1 (A-419259-resistant population); test: CellTiter-Blue cell viability; assay type: cell-based, human
Description: as §2

[7] = read-out: A-419259 Sensitivity (IC50, nM) Initial, mean ± SE (n = 3)
[8] = read-out: A-419259 Sensitivity (IC50, nM) Post-holiday, after 4 weeks passage in the absence of inhibitor, mean ± SE (n = 3)

T3 sequence (P08631 whole entry): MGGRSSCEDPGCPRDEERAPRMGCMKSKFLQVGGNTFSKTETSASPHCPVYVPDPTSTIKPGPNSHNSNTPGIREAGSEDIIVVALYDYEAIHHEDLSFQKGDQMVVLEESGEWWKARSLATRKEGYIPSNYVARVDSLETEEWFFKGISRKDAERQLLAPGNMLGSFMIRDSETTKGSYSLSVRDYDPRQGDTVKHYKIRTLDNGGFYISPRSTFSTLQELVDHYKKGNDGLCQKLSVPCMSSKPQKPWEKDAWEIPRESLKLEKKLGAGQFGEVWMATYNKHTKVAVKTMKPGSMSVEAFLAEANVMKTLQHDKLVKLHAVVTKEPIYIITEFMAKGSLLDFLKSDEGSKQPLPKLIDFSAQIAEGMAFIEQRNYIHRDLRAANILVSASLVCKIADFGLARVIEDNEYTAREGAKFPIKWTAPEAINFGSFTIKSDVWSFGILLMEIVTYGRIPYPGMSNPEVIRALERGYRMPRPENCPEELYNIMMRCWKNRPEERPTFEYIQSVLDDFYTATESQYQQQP

For `CN1CCN(C2CCC(n3cc(-c4ccc(Oc5ccccc5)cc4)c4c(N)ncnc43)CC2)CC1` (centres unmarked) [A-419259], the “resistance to A-419259” value (Fgr T338M; Fgr gatekeeper methionine substitution, vs wild-type) was 2.5 fold, the IC50 (Fgr T338M; read-out: A-419259 IC50, Fig 5B, Fgr T338M, ATP at Km, mean ± SE, three independent determinations) was 160.6 ± 1.1 nM and the IC50 (MOLM14 cells (parent); [7]) was 14.3 ± 1.5 nM. It also gave an IC50 (MOLM14 cells (parent); [8]) of 26.4 ± 7.7 nM, an IC50 (MOLM13 cells (parent); [7]) of 40.3 ± 9.9 nM and an IC50 (MOLM13 cells (parent); [8]) of 38.4 ± 0.9 nM. The IC50 (MV4-11 cells (parent); Fig 3A, 72 hours, read-out: IC50 (cell viability)) was 58 nM, the IC50 (MV4-11 cells (parent); read-out: A-419259 Sensitivity (IC50, nM) Initial, MV4-11 Parent, mean ± SE (n = 3)) was 28.3 ± 3.5 nM and the IC50 (MV4-11 cells (parent); read-out: A-419259 Sensitivity (IC50, nM) Post-holiday, MV4-11 Parent, after 4 weeks passage in the absence of inhibitor, mean ± SE (n = 3)) was 27.5 ± 4.3 nM. For the same compound, the “resistance to A-419259 in in vitro kinase assays” value (Flt3-D835Y kinase domain) was “about 6 fold”, the “% Control” value (HCK) was 1.9% and the IC50 [1, 7] was 213 ± 73.7 nM. It also gave an IC50 [1, 8] of 178 ± 46.1 nM, an IC50 [2, 7] of 410 ± 136 nM and an IC50 [2, 8] of 597 ± 76.3 nM. For the same compound, the IC50 [3, 7] was 125 ± 7.3 nM, the IC50 [3, 8] was 91.6 ± 15.6 nM and the IC50 [4, 7] was 473 ± 53.9 nM. It also gave an IC50 [4, 8] of 436 ± 107 nM, an IC50 [5, 7] of 193 ± 51.4 nM and an IC50 [5, 8] of 326 ± 38.4 nM. For the same compound, the IC50 [6, 7] was 187 ± 20.8 nM and the IC50 [6, 8] was 283 ± 84.2 nM.
